Test results reported in ChEMBL document CHEMBL1177883, “5D-QSAR for spirocyclic sigma1 receptor ligands by Quasar receptor surface modeling” (Eur J Med Chem, 2010).

Target: Sigma non-opioid intracellular receptor 1 (Cavia porcellus, UniProt Q60492)
Test: Displacement of [3H](+)-pentazocine from sigma 1 receptor in guinea pig brain membrane
Type: cell membranes

Sequence of Sigma non-opioid intracellular receptor 1 (Q60492 whole entry): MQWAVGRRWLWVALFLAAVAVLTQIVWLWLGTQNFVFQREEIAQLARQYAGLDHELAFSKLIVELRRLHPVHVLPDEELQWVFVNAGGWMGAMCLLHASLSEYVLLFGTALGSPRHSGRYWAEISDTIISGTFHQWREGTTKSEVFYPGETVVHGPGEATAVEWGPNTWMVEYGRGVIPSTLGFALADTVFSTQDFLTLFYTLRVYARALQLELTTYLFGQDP

Row | SMILES | Ki
1 | CCCN1CCC2(CC1)O[C@@H](OC)Cc1c2cnn1C | 2.98 µM
2 | CO[C@H]1Cc2sccc2C2(CCN(Cc3ccccc3)CC2)O1 | 0.00032 µM
3 | CCOC(=O)C[C@H]1OC2(CCN(Cc3ccccc3)CC2)c2ccccc21 | 0.015 µM
4 | OCC[C@@H]1Cc2ccccc2C2(CCN(CC3CCCCC3)CC2)O1 | 0.009 µM
5 | CO[C@@H]1Cc2ccccc2[C@@]2(CCCN(Cc3ccccc3)C2)O1 (racemic) | 1.72 µM
6 | CO[C@H]1Cc2sccc2C2(CCN(CC3CCCCC3)CC2)O1 | 0.0003 µM
7 | CC(=O)C[C@@H]1Cc2sccc2C2(CCN(Cc3ccccc3)CC2)O1 | 0.0094 µM
8 | CCCN1CCC2(CC1)O[C@@H](OC)Cc1c2cnn1-c1ccccc1 | 0.033 µM
9 | CO[C@H]1Cc2sc(-c3ccccc3)cc2C2(CCN(Cc3ccco3)CC2)O1 | 0.0022 µM
10 | CO[C@H]1Cc2sccc2C2(CCN(CCc3ccccc3)CC2)O1 | 0.0059 µM
11 | OCC[C@H]1Cc2ccccc2C2(CCN(CC3CCCCC3)CC2)O1 | 0.01 µM
12 | CO[C@H]1Cc2sc(C(=O)c3ccccc3)cc2C2(CCN(Cc3ccccc3)CC2)O1 | 0.0037 µM
13 | CO[C@H]1Cc2c(cnn2-c2ccccc2)C2(CCN(Cc3ccccc3)CC2)O1 | 0.0015 µM
14 | OCC[C@@H]1Cc2ccccc2C2(CCN(CCCc3ccccc3)CC2)O1 | 0.068 µM
15 | CO[C@H]1Cc2sccc2C2(CCN(CC=C(C)C)CC2)O1 | 0.001 µM
16 | O[C@H]1Cc2ccccc2C2(CCN(CCc3ccccc3)CC2)O1 | 0.044 µM
17 | CO[C@H]1Cc2ccccc2C2(CCN(CCCCc3ccccc3)CC2)O1 | 0.01 µM
18 | CO[C@H]1Cc2sc(CN(C)C)cc2C2(CCN(Cc3ccccc3)CC2)O1 | 0.017 µM
19 | Cn1ncc2c1CCOC21CCN(CCCc2ccccc2)CC1 | 0.017 µM

Row | SMILES | Ki
20 | CO[C@@H]1OC2(CCN(Cc3ccccc3)CC2)c2cnn(-c3ccccc3)c21 | 0.00049 µM
21 | OCC[C@H]1Cc2ccccc2C2(CCN(CCCc3ccccc3)CC2)O1 | 0.015 µM
22 | CO[C@H]1Cc2c(cnn2-c2ccccc2)C2(CCN(CC(C)C)CC2)O1 | 0.0063 µM
23 | CO[C@H]1Cc2ccccc2C2(CCN(C)CC2)O1 | 4.4 µM
24 | O[C@H]1OC2(CCN(CCc3ccccc3)CC2)c2ccccc21 | 0.109 µM
25 | OCC[C@H]1Cc2ccccc2C2(CCN(Cc3ccccc3)CC2)O1 | 0.01 µM
26 | CO[C@H]1Cc2c(cnn2C)C2(CCN(Cc3ccccc3)CC2)O1 | 0.021 µM
27 | CO[C@H]1Cc2c(cnn2-c2ccccc2)C2(CCN(C(C)C)CC2)O1 | 0.21 µM
28 | CO[C@H]1CCc2ccccc2C2(CCN(Cc3ccccc3)CC2)O1 | 0.0026 µM
29 | OCC[C@@H]1Cc2ccccc2C2(CCN(Cc3ccccc3)CC2)O1 | 0.048 µM
30 | c1ccc(CCCN2CCC3(CC2)OCCc2c3cnn2-c2ccccc2)cc1 | 0.00081 µM
31 | COC(=O)c1cc2c(s1)C[C@H](OC)OC21CCN(Cc2ccccc2)CC1 | 0.0109 µM
32 | CCC[C@H]1OC2(CCN(Cc3ccccc3)CC2)c2ccccc21 | 0.0032 µM
33 | CO[C@H]1Cc2sccc2C2(CCN(CCCCc3ccccc3)CC2)O1 | 0.0077 µM
34 | CC(C)=CCN1CCC2(CC1)OCCc1c2cnn1C | 0.014 µM
35 | CCOC(=O)C[C@H]1Cc2ccccc2C2(CCN(Cc3ccccc3)CC2)O1 | 0.183 µM
36 | CC(=O)C[C@H]1Cc2sccc2C2(CCN(Cc3ccccc3)CC2)O1 | 0.012 µM
37 | CO[C@@H]1Cc2ccccc2[C@@]2(CCCN(CCc3ccccc3)C2)O1 (racemic) | 0.47 µM
38 | CCCCN1CCC[C@@]2(C1)O[C@H](OC)Cc1ccccc12 (racemic) | 1.29 µM
